Patent publication US4175125A, “Method for treating methicillin resistant staphylococcus aureus” (Eli Lilly and Company, priority 1978, dated 1979)
Structures can show the parent of a compound that is named as a salt. Where two headings read alike, the source gives them in different places.

Experiments:
[1] = system: Streptococcus pyogenes, strain C203; assay: Streptococcus pyogenes infection in mice, median effective dose (Example 12); format: in vivo; conditions: infecting challenge 27.9 (XLD50), read-out: ED50
Protocol: The compound 7-[2"-(3"-chloro-4"-fluorophenyltio)acetamido]cephalosporanic acid, prepared as described in Example 8, was tested for antibiotic effectiveness against Streptococcus pyogenes, strain C203 infections in mice, and is compared with the effectiveness of cephaloridine in the same test. Experience has shown with other compounds, some of which are now commercial antibiotics, that a compound effective against Streptococcus pyrogenes, strain C203 in this test will be effective against Staphylococcus aureus strains in clinical use. This is intended as further evidence that the compounds of the method of this invention should be effective antibiotics in clinical situations.
In this test, a standard in vivo test method described by Wick, W. E., F. Streightoff, and D. H. Holmes. 1961, in J. Bacteriol., 81: 233-235 was used. The oral and subcutaneous median effective doses (ED50) necessary to cure 50 percent of the mice were calculated according to the method of Reed and Muench (Reed, L. J., and H. Meunch. 1938. Am. J. Hyg. 27: 493-497) The results were as follows: […]

[2] = system: methicillin-resistant Staphylococcus aureus; assay: Gradient plate test (MIC) against methicillin-resistant Staphylococcus aureus; format: cell-based; conditions: Staphylococcus aureus, read-out: minimum inhibitory concentration (MIC)
Protocol: The method used is essentially that described by Bryson and Szybalski in 1952 (Science 116:45-46). The inoculum treatment method used for penicillin resistant Staphylococci was reported by Godzeski et al in Antimicrobial Agents and Chemotherapy, May, 1969, pp. 547-554.
A standard Falcon square plastic petri dish is used. A layer of agar (10 ml.) is poured into one of the square dishes, the dish tipped 5 mm. off the horizontal, and the agar layer allowed to harden in this position. This bottom layer of agar contains the antibiotic, the serum, and/or other material to be tested. The medium is Difco Penassay Agar containing 2 percent agar. We routinely used 4 ml. of human or horse serum for "serum-inactivation" testing. […] Therefore, serum is routinely added only to the bottom layer.
After the bottom, slanted layer of agar medium has hardened, the plate is placed flat and another 10 ml. of medium added and allowed to harden.
The inoculum of resistant Staphylococci, as described, is prepared by diluting the water suspension 1/50 in 0.25 percent agar in sterile water or saline. For Gram negative organisms, an overnight broth culture is diluted 1/50 in the 0.25 percent agar-water. This dilution is thoroughly shaken to evenly suspend the bacteria. To streak the plate, we use a 1 ml. pipet containing an aliquot of the final […] agar dilution. After a little practice, a smooth even stroke of inoculum can be laid down very rapidly. The trick is in the smoothness of the streak--it must be accomplished uniformly and quickly.
After 24 hours incubation at 35°-37° C. the plates are read by simply measuring the length of bacterial growth as a percentage of the entire streak distance which is then converted to the percent of antibiotic concentration in the plate.
Average values of duplicate measurements are calculated and the M.I.C.'s reported are average of 2 streaks on the plate and from 2 to 3 duplicate plates. Eight streaks can be easily placed on each plate. If sharp end points are not obtained, the middle concentration between the beginning of inhibition of the streak to the end of growth is measured. The concentration of the antibiotic under examination is varied from plate to plate in a series as follows: […]
This method of screening penicillins and cephalosporins is quite satisfactory. Control plates containing penicillin and staphcillin or prostaphlin, or other control antibiotic, are used daily for the resistant staphylococcal activity screen. The gradient plate method has shown differences between antibiotics that were not apparent by any other methods of screening. […] We believe that the gradient plate screen is more sensitive to small differences between related antibiotics than other methods and pictures of the plates can provide a permanent record. The method also lends itself readily to modification of specific purposes--e.g., cross gradients.
The compounds listed below are examples of compounds useful in the method of this invention. After the compound name there is given in parentheses, where tested, the minimum inhibitory concentrations (MIC) in micrograms per milliliter (μg/ml) for the compound in the above described gradient plate procedure test against methicillin-resistant Staphylococcus aureus, (in the absence of blood serum/in the presence of 20 percent blood serum).
and pharmaceutically acceptable salts thereof. The abbreviation "s.z." means skip zones.

Compound: CC(=O)OCC1=C(C(=O)O)N2C(=O)C(NC(=O)CSc3ccc(F)c(Cl)c3)C2SC1 (stereo not shown) [Example 8, 7-(3'-chloro-4-fluorophenylthioacetamido)cephalosporanic acid, sodium salt]
- ED50 ([1]; C203, oral): 7 mg/kg
- ED50 ([1]; C203, sc, subcut): < 0.21 mg/kg
- MIC ([2]; in the absence of blood serum): 9.3 µg/mL
- MIC ([2]; in the presence of 20 percent blood serum): 12.2 µg/mL
